Assay results taken from patent US7273712B2, “Methods and compositions for detecting compounds that modulate inflammatory responses” (Reddy US Therapeutics, Inc., priority 2000, dated 2007).

Assays:
[1] = system: IL-6 secretion by endothelial cells (HMVEC); assay: AGE-induced inflammatory response determined by IL-6 ELISA; assay type: cell-based, human; details: 24 hrs
Protocol: These cell were allowed to reach >90% confluency before being subjected to experimental treatments. G-HSA was from US Biologicals. Tumor necrosis factor α (TNFα) was from R&D Systems.
HMVEC were treated with control medium or medium containing 100 ng/ml TNFα or 300 μg/ml G-HSA for 24 hrs. All treatments and controls were carried out in serum free media containing 0.2% albumin. Following treatment, cell media were collected and used for an IL-6 ELISA.
The IL-6 ELISA was carried out using human IL-6 DuoSet ELISA development kit as described by manufacturer (R&D Systems). Mouse anti-human IL-6 was used as the capture antibody (2 μg/ml) and biotinylated goat anti-human IL6 (200 ng/ml) was used as the detection antibody. The culture media were incubated with capture antibody for 2 h at room temperature in 96-well plates. The wells were washed three times with wash buffer (0.05% Tween-20 in phosphate buffered saline (PBS) pH 7.4) followed by incubation with detection antibody for 2 h at room temperature. Following three washes, the wells were incubated with Streptavidin-HRP for 20 min. Color development was read at 450 nm in a microplate reader.

[2] = system: MCP-1 secretion by endothelial cells (HAEC and HMVEC); assay: AGE-induced inflammatory response determined by MCP-1 ELISA; assay type: cell-based, human; details: 100 ng/ml TNFα or 300 μg/ml G-HSA, 24 hrs, vs control medium (FIG. 2)
Protocol: HAEC and HMVEC (Clonetics) were cultured and subcultured according to manufacturer in growth medium (Clonetics): basal medium containing hEGF, hydrocortisone, VEGF, HFGF-B (with heparin), long R3-IGF-1, ascorbic acid, gentamicin/amphotericin and 5% FBS. These cells were allowed to reach >90% confluency before being subjected to experimental treatments.
Cells were treated with control medium or medium containing 100 ng/ml TNFα or 300 μg/ml G-HSA for 24 hrs. All treatments and controls were carried out in serum free media containing 0.2% albumin. Following treatment, media were collected and used for the MCP-1 ELISA.
MCP-1 ELISA was carried out using a DuoSet ELISA Development System for Human MCP-1 as described by the manufacturer (R&D Systems). 2 ug/ml of mouse anti-human MCP-1 was used as the capture antibody and 100 ng/ml biotinylated goat anti-human MCP-1 was used as the detection antibody. The culture media were incubated with capture antibody for 2 h at room temperature in 96-well plates. The wells were washed three times with wash buffer (0.05% Tween-20 in phosphate buffered saline (PBS) pH 7.4) followed by incubation with detection antibody for 2 h at room temperature. Color development was read at 450 nm in a microplate reader.

In the case of Tumor necrosis factor α [TNFα], the “increase in IL-6 secretion” value ([1]; 100 ng/ml TNFα or 300 μg/ml G-HSA, HMVEC, vs control medium (FIG. 1)) is reported as 147%, the “increase in IL-6 secretion by endothelial cells” value ([1]; 100 ng/ml TNFα, serum free media containing 0.2% albumin, vs control medium) is reported as “greater than 2 fold” and the “increase in MCP-1 secretion” value [2] is reported as 540%.
